# From patent publication US11560373B2, “Compounds and their use as PDE4 activators” (Mironid Limited, priority 2018, dated 2023)
# What was measured:
# Format in all cases: biochemical
# PDE4B1 = molecular target: T1, PDE4B1 (Homo sapiens, UniProt Q07343); assay: PDE assay, [3H]cAMP hydrolysis by HEK-PDE4B1 cell lysate cytosol fraction; conditions: mean % increase in counts over basal activity
# T1 construct: stably expressed the full-length human PDE4D5, PDE4B1 and PDE4A4 long isoforms; made in house
# T1 sequence (Q07343 whole entry, canonical isoform): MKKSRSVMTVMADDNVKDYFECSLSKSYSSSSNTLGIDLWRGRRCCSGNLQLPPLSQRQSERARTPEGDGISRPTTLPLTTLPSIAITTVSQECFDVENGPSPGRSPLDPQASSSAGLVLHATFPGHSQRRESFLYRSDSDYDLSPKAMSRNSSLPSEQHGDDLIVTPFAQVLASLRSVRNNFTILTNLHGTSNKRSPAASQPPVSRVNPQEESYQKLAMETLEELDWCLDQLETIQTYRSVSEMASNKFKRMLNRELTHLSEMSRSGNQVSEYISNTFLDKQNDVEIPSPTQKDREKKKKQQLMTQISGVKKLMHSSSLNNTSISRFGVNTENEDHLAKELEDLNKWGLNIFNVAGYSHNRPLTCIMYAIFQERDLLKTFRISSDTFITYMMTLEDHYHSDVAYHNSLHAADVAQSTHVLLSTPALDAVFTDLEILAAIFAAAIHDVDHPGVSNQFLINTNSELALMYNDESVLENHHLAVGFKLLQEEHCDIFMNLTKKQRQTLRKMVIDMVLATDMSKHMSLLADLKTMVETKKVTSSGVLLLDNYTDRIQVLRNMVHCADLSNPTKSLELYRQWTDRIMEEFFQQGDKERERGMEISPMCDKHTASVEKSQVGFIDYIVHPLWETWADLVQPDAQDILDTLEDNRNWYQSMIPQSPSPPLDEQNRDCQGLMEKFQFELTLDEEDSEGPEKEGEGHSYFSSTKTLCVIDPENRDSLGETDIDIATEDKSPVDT
# PDE4D5 = molecular target: T2, PDE4D5 (Homo sapiens, UniProt Q08499); assay: PDE assay, [3H]cAMP hydrolysis by HEK-PDE4D5 cell lysate cytosol fraction; conditions: 30 μM; mean % increase in counts over basal activity
# T2 construct: stably expressed the full-length human PDE4D5, PDE4B1 and PDE4A4 long isoforms; made in house
# T2 sequence (Q08499 1-745 isoform Q08499-6): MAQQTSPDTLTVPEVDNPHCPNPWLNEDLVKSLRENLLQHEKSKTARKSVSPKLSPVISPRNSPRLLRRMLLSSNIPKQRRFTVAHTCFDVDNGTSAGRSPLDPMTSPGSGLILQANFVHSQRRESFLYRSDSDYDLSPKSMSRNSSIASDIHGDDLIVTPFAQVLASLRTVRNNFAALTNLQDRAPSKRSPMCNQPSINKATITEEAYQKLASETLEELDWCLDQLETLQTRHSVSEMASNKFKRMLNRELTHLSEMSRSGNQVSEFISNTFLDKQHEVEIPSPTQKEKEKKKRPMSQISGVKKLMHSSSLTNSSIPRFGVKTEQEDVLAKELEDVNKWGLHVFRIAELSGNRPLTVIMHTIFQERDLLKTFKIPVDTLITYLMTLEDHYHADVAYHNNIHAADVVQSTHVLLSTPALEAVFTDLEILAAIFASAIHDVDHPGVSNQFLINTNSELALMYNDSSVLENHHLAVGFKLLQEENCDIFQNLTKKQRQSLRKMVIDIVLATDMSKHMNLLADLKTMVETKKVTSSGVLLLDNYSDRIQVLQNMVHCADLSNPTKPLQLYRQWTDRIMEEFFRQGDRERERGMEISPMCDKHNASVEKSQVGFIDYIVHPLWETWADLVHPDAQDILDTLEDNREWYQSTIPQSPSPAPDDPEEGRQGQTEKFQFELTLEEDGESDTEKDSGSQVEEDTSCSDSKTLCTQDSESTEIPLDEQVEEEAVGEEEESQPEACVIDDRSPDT
# Description: (§1) HEK 293 cells were transfected with pDEST™ PDE4 expression vectors using Lipofectamine LTX/Plus reagent (Invitrogen) as outlined by the manufacturer and clonal isolates expanded to obtain cell lines that stably expressed the full-length human PDE4D5, PDE4B1 and PDE4A4 long isoforms and the full length human PDE4B2 short isoform. These were called the HEK-PDE4D5, HEK-PDE4B1, HEK-PDE4A4 and HEK-PDE4B2 cell lines, respectively.
# (§2) HEK-PDE4D5 cells were seeded out in 100 mm plates and incubated at 37° C. in an atmosphere of 5% CO2, 95% air. Cell lysates were prepared using KHEM buffer [50 mM KCl, 10 mM EGTA, 50 mM HEPES (pH 7.2), 1.92 mM MgCl2].
# (§3) To prepare the cell lysates, the 100 mm plates containing the cells were placed on ice and washed with ice-cold PBS (phosphate buffered saline, pH 7.4). KHEM buffer (500 μl) was added to the cells. Cells were then scraped off the plate and triturated using a needle (BD Microlance™ 0.8, 40 mm). The lysed cells were then centrifuged at 2000 rpm for 10 minutes to remove cell debris and the supernatant (cell lysate containing recombinant PDE4D5) was transferred to a fresh tube and kept on ice.
# (§4) The cell lysate containing recombinant PDE4D5 was transferred into a centrifuge tube and placed into an ultracentrifuge (BECKMAN COULTER) and spun at high speed (100,000 g) for 30 minutes at 4° C. The cytosol fraction was then collected and its protein amount determined using a BCA protein assay.
# (§5) PDE assays were performed in thin walled V-bottomed 96-well plates. The assays were performed at a final concentration of 10 mM Tris/5 mM MgCl2 plus PDE4D5 cell lysate cytosol fraction, containing over-expressed PDE4D5, with and without test compound. The lysate/compound mix were incubated together for 15 min at room temperature on an orbital shaker prior to addition of [^3H] cAMP (final concentration 1 μM [^3H] cAMP; Perkin Elmer) to a final volume of 50 μl per reaction. The reactions were then incubated for 10 minutes at 30° C., terminated by heating for 2 min at 95° C. and allowed to cool. Snake venom (12.5 μl of 1 mg/ml; Crotalus atrox, Sigma) was then added and the plates were agitated and incubated for a further 15 minutes at 30° C. Dowex ion exchange resin (Sigma, chloride form, 200-400 mesh; 200 μl; prepared as a 1:1 Dowex: water stock, thoroughly re-suspended and diluted 2:1 with ethanol) was then added to each well and the plates incubated for 15 min at room temperature on an orbital shaker ensuring sufficient agitation for resin suspension (550 RPM). The reaction mixture was then transferred to a 96 well filter plate (Millipore; […] pore size) and filtered into a receiving 96-well plate to remove the dowex suspension. 30 μL of the filtered solution was then transferred to the wells of an Opti-plate (Perkin Elmer) 96 well assay plate and 120 μl of Microscint 40 scintillation fluid was added. The plate was then placed on an orbital shaker for 10 min at high speed (900 RPM) to mix the sample with scintillation fluid prior to quantitation using a plate based scintillation counter (Top-Count).
# (§6) The % increase in counts in the presence of test compound at a particular concentration indicates the % increase in enzyme activity at that concentration.
# PDE4B2 = molecular target: T3, PDE4B2 (Homo sapiens, UniProt Q07343); assay: PDE assay, [3H]cAMP hydrolysis by HEK-PDE4B2 cell lysate cytosol fraction (short form); conditions: mean % increase in counts over basal activity
# T3 construct: the full length human PDE4B2 short isoform; made in house
# T3 sequence (Q07343 1-564 isoform Q07343-2): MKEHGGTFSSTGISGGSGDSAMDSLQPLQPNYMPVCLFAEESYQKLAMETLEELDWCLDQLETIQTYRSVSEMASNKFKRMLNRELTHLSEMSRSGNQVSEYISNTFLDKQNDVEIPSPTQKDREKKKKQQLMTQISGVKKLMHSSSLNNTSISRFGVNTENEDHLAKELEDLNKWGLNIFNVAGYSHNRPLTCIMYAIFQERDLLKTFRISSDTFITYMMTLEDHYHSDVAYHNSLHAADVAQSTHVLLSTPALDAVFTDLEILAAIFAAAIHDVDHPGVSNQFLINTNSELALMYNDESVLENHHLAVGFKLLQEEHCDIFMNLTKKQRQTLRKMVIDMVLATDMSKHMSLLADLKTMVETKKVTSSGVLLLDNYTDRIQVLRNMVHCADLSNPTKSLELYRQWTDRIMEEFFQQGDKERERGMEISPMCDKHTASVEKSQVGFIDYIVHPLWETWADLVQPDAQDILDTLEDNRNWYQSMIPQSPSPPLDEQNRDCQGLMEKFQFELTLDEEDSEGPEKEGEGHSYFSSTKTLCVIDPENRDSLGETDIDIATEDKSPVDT
# Description: as §1, §2, §3, §4, §5, §6
% increase in PDE4B1 activity at 30 μM (PDE4B1) [%],activation at 30 µM (PDE4D5) [%],% increase in PDE4B2 activity at 30 μM (PDE4B2) [%],Structure (SMILES)
79.1,,,"CCn1nc(-c2ccc(Cl)c(F)c2)nc1CC(=O)NCc1cccc(F)c1 [Example 1, 2-[3-(4-Chloro-3-fluorophenyl)-1-ethyl-1H-1,2,4-triazol-5-yl]-N-(3-fluorobenzyl) acetamide]"
,104,3.4,"CCn1nc(-c2ccc(Cl)c(OC)c2)nc1CC(=O)NCc1cc(Cl)cc(Cl)c1 [Example 29, 2-[3-(4-Chloro-3-methoxyphenyl)-1-ethyl-1H-1,2,4-triazol-5-yl]-N-[(3,5-dichlorophenyl)methyl]acetamide]"
,82.3,−9.4,"CCn1nc(-c2ccc(Cl)c(OCCOC)c2)nc1CC(=O)NCc1cc(Cl)cc(Cl)c1 [Example 33, 2-{3-[4-Chloro-3-(2-methoxyethoxy)phenyl]-1-ethyl-1H-1,2,4-triazol-5-yl}-N-[(3,5-dichlorophenyl)methyl]acetamide]"
,81.6,,"CCn1nc(-c2ccc(Cl)c(OC(C)C)c2)nc1CC(=O)NCc1ccc2[nH]ncc2c1 [Example 38, 2-[3-(4-Chloro-3-isopropyloxyphenyl)-1-ethyl-1H-1,2,4-triazol-5-yl]-N-[(1H-indazol-5-yl)methyl]acetamide]"
,48.5,1.6,"CCn1nc(-c2ccc(Cl)c(OC(C)C)c2)nc1CC(=O)N[C@H]1CCOc2ccc(Cl)cc21 [Example 40, N-[(4S)-6-Chloro-3,4-dihydro-2H-1-benzopyran-4-yl]-2-[3-(4-chloro-3-isopropyloxyphenyl)-1-ethyl-1H-1,2,4-triazol-5-yl]acetamide]"
,40,,"CCn1nc(-c2ccc(Cl)c(OC(C)C)c2)nc1CC(=O)N[C@H]1CCc2ncccc21 [Example 42, 2-[3(4-Chloro-3-isopropyloxyphenyl)-1-ethyl-1H-1,2,4-triazol-5-yl]-N-[(5S)-5H,6H,7H-cyclopenta[b]pyridin-5-yl]acetamide]"
,45,,CC(C)Oc1cc(-c2nc(CC(=O)N[C@H]3CCc4ccccc43)n(C)n2)ccc1Cl [Example 44]
,26.2,,"CC(C)Oc1cc(-c2nc(CC(=O)NCc3cccc(F)c3)n(C)n2)ccc1Cl [Example 46, 2-[3-(4-Chloro-3-isopropyloxyphenyl)-1-methyl-1H-1,2,4-triazol-5-yl]-N-[(3-fluorophenyl)methyl]acetamide]"
,45.2,,"CC(C)Oc1cc(-c2nc(CC(=O)N[C@H]3CCOc4ccccc43)n(C)n2)ccc1Cl [Example 48, 2-[3-(4-Chloro-3-isopropyloxyphenyl)-1-methyl-1H-1,2,4-triazol-5-yl]-N-[(4S)-3,4-dihydro-2H-1-benzopyran-4-yl]acetamide]"
,36.7,,"CCn1nc(-c2ccc(Cl)c(F)c2)nc1C(F)(F)C(=O)NCc1cc(Cl)cc(Cl)c1 [Example 50, 2-[3-(4-Chloro-3-fluorophenyl)-1-ethyl-1H-1,2,4-triazol-5-yl]-N-[(3,5-dichlorophenyl)methyl]-2,2-difluoroacetamide]"
,73.8,,"CCn1nc(-c2ccc(Cl)c(F)c2)nc1C(F)(F)C(=O)NCc1ccc2[nH]c(C)nc2c1 [Example 52, 2-[3-(4-Chloro-3-fluorophenyl)-1-ethyl-1H-1,2,4-triazol-5-yl]-2,2-difluoro-N-[(2-methyl-1H-1,3-benzimidazol-5-yl)methyl]acetamide]"
,97.2,,"COC(=O)Cn1nc(-c2ccc(Cl)c(F)c2)nc1CC(=O)NCc1cc(Cl)cc(Cl)c1 [Example 54, Methyl 2-[3-(4-chloro-3-fluorophenyl)-5-({[(3,5-dichlorophenyl)methyl]carbamoyl}methyl)-1H-1,2,4-triazol-1-yl]acetate]"
,155,,"CCOC(=O)CCCn1nc(-c2ccc(Cl)c(F)c2)nc1CC(=O)NCc1cc(Cl)cc(Cl)c1 [Example 56, Ethyl 4-[3-(4-chloro-3-fluorophenyl)-5-({[(3,5-dichlorophenyl)methyl]carbamoyl}methyl)-1H-1,2,4-triazol-1-yl]butanoate]"
,128,,"O=C(O)CCn1nc(-c2ccc(Cl)c(F)c2)nc1CC(=O)NCc1cc(Cl)cc(Cl)c1 [Example 58, 3-[3-(4-Chloro-3-fluorophenyl)-5-({[(3,5-dichlorophenyl)methyl]carbamoyl}methyl)-1H-1,2,4-triazol-1-yl]propanoic acid]"
,49.8,,"CCn1nc(-c2ccc(Cl)c(F)c2)nc1CC(=O)N[C@@H]1c2ccccc2C[C@@H]1O [Example 62, 2-[3-(4-Chloro-3-fluorophenyl)-1-ethyl-1H-1,2,4-triazol-5-yl]-N-[(1R,2S)-2-hydroxy-2,3-dihydro-1H-inden-1-yl]acetamide]"
,92.1,,"CCn1nc(-c2ccc(Cl)c(F)c2)nc1CC(=O)NC1Cc2ccccc2C1 [Example 66, 2-[3-(4-Chloro-3-fluorophenyl)-1-ethyl-1H-1,2,4-triazol-5-yl]-N-(2,3-dihydro-1H-inden-2-yl)acetamide]"
,51.3,,"CCn1nc(-c2ccc(Cl)c(F)c2)nc1CC(=O)N[C@H]1C[C@H](O)c2ccccc21 [Example 68, 2-[3-(4-Chloro-3-fluorophenyl)-1-ethyl-1H-1,2,4-triazol-5-yl]-N-[(1S,3S)-3-hydroxy-2,3-dihydro-1H-inden-1-yl]acetamide]"
,92,,"O=C(Cc1nc(-c2ccc(Cl)c(F)c2)nn1CC1CC1)N[C@H]1CCc2ccccc21 [Example 72, 2-[3-(4-Chloro-3-fluorophenyl)-1-(cyclopropylmethyl)-1H-1,2,4-triazol-5-yl]-N-[(1S)-2,3-dihydro-1H-inden-1-yl]acetamide]"
,55.3,,"CCn1nc(-c2ccc(Cl)c(F)c2)nc1CC(=O)N[C@H]1CCOc2ccccc21 [Example 74, 2-[3-(4-Chloro-3-fluorophenyl)-1-ethyl-1H-1,2,4-triazol-5-yl]-N-[(4S)-3,4-dihydro-2H-1-benzopyran-4-yl]acetamide]"
,79.1,,"O=C(Cc1nc(-c2ccc(Cl)c(F)c2)nn1CC1CC1)N[C@H]1CCOc2ccc(Cl)cc21 [Example 78, N-[(4S)-6-Chloro-3,4-dihydro-2H-1-benzopyran-4-yl]-2-[3-(4-chloro-3-fluorophenyl)-1-(cyclopropylmethyl)-1H-1,2,4-triazol-5-yl]acetamide]"
,58.9,,"CCc1cc(CNC(=O)Cc2nc(-c3ccc(Cl)c(F)c3)nn2CC)cc(CC)n1 [Example 80, 2-[3-(4-Chloro-3-fluorophenyl)-1-ethyl-1H-1,2,4-triazol-5-yl]-N-[(2,6-diethylpyridin-4-yl)methyl]acetamide]"
,34.3,,"CCn1nc(-c2ccc(Cl)c(OC(C)C)c2)nc1CC(=O)NCc1cc(C)cc(C)n1 [Example 82, 2-[3-(4-Chloro-3-isopropyloxyphenyl)-1-ethyl-1H-1,2,4-triazol-5-yl]-N-[(4,6-dimethylpyridin-2-yl)methyl]acetamide]"
,89.6,,"CCn1nc(-c2ccc(Cl)c(F)c2)nc1CC(=O)NCc1ccnc(C(F)(F)F)c1 [Example 83, 2-[3-(4-Chloro-3-fluorophenyl)-1-ethyl-1H-1,2,4-triazol-5-yl]-N-{[2-(trifluoromethyl)pyridin-4-yl]methyl}acetamide]"
,32.2,,"CCn1nc(-c2ccc(Cl)c(F)c2)nc1CC(=O)NCc1ccnc(C(F)F)c1 [Example 84, 2-[3-(4-Chloro-3-fluorophenyl)-1-ethyl-1H-1,2,4-triazol-5-yl]-N-{[2-(difluoromethyl)pyridin-4-yl]methyl}acetamide]"
,37.3,,"CCn1nc(-c2ccc(Cl)c(F)c2)nc1CC(=O)NC1(c2cc(C)nc(C)c2)CC1 [Example 86, 2-[3-(4-Chloro-3-fluorophenyl)-1-ethyl-1H-1,2,4-triazol-5-yl]-N-[1-(2,6-dimethylpyridin-4-yl)cyclopropyl]acetamide]"
